According to patent US11331299B2, “Medicinal use of serrulatane diterpenes” (The University of Sydney, priority 2016, dated 2022):
Where two headings read alike, the source gives them in different places.

Legend:
LSD1 (h) = LSD1 (h) (Homo sapiens, UniProt O60341); test: Epigenetic enzyme assay, Demethylases (KDMs); format: biochemical; settings: read-out: % Inhibition of Control Values
[1] = target: T1, sirtuin 3 (h) (inhibitor effect) (Homo sapiens, UniProt Q9NTG7); test: Epigenetic enzyme assay, Sirtuins; format: biochemical; settings: read-out: % Inhibition of Control Values
T1 sequence (Q9NTG7 1-399): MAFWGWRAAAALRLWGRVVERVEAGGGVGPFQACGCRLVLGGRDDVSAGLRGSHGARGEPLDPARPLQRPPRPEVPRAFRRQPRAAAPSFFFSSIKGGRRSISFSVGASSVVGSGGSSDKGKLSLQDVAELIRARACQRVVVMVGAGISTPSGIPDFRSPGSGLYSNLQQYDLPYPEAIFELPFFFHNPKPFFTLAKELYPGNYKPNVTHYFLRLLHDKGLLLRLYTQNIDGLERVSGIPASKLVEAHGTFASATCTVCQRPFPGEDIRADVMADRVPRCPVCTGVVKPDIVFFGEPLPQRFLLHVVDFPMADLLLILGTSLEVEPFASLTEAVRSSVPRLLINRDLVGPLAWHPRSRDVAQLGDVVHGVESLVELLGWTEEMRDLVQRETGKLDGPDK

MLL2(h) complex = test: Epigenetic enzyme assay, Methyltransferases (MTs); format: biochemical, human; settings: for % Inhibition of Control Values: 10 μM
NSD3/WHSC1L1 (h) = target: T2, NSD3/WHSC1L1 (h) (Homo sapiens, UniProt Q9BZ95); test: Epigenetic enzyme assay, Methyltransferases (MTs); format: biochemical; settings: 10 μM; read-out: % Inhibition of Control Values
T2 sequence (Q9BZ95 1-1437): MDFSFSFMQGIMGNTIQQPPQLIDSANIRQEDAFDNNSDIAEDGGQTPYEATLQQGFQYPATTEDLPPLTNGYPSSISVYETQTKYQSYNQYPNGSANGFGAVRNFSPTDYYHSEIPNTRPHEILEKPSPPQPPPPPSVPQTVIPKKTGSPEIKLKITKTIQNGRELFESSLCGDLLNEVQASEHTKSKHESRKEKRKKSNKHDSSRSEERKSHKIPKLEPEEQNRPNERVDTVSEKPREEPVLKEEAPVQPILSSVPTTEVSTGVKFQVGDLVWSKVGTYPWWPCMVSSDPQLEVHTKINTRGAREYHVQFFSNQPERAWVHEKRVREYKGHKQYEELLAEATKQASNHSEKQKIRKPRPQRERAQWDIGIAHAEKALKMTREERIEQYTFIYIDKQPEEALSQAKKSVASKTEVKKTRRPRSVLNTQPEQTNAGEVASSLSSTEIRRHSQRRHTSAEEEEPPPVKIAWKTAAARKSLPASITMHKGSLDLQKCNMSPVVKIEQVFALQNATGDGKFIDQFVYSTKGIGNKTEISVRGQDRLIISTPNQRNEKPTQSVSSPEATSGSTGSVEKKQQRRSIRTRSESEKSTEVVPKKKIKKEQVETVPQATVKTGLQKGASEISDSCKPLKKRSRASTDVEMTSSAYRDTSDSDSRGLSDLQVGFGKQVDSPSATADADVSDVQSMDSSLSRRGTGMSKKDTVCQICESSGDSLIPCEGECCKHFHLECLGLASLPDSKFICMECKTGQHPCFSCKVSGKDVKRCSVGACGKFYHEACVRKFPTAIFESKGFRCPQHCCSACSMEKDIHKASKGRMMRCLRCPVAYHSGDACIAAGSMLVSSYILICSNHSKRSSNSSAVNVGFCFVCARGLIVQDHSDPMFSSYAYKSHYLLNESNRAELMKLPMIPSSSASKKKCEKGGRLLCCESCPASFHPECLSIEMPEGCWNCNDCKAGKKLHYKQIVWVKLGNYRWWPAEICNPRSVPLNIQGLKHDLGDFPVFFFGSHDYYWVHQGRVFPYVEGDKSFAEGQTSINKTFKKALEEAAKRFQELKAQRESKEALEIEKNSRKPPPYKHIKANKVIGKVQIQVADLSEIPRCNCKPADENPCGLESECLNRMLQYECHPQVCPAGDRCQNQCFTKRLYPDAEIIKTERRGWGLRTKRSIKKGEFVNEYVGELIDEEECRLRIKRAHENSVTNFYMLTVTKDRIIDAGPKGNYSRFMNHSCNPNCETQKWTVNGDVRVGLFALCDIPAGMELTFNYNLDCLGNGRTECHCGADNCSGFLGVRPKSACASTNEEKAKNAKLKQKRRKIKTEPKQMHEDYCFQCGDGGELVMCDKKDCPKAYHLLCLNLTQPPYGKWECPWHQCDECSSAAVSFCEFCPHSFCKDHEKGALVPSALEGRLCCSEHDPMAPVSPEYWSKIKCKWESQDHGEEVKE

SETDB1 (h) = SETDB1 (h) (Homo sapiens, UniProt Q15047); test: Epigenetic enzyme assay, Methyltransferases (MTs); format: biochemical; settings: for inhibition at 10 µM: read-out: % Inhibition of Control Values
USP 7 (h) = USP 7 (h) (Homo sapiens, UniProt Q93009); test: Epigenetic enzyme assay, Ubiquitin modifying enzymes; format: biochemical; settings: 10 μM; read-out: % Inhibition of Control Values
[2] = tested on: Chemokine CXCR1/2 (IL-8, Non-Selective); test: Chemokine CXCR1/2 (IL-8, Non-Selective) radio ligand binding; set-up: species or system Human; settings: 10 μM; assay year 2015
Experimental: (§1) The in vitro pharmacological studies were conducted by Eurofins PanLab (Taiwan) using the parameters shown in Table 13 with respect to appropriate literature references.

Histamine H2 = target: T3, Histamine H2 (Homo sapiens, UniProt P25021); test: Histamine H2 radio ligand binding
T3 construct: expressed in transfected cells; host or cells: CHO-K1 cells
Experimental: as §1

[3] = assay year 2014, read-out: % Control Response
[4] = assay year 2015, read-out: % Control Response

USP 7 (h), sequence (Q93009 whole entry): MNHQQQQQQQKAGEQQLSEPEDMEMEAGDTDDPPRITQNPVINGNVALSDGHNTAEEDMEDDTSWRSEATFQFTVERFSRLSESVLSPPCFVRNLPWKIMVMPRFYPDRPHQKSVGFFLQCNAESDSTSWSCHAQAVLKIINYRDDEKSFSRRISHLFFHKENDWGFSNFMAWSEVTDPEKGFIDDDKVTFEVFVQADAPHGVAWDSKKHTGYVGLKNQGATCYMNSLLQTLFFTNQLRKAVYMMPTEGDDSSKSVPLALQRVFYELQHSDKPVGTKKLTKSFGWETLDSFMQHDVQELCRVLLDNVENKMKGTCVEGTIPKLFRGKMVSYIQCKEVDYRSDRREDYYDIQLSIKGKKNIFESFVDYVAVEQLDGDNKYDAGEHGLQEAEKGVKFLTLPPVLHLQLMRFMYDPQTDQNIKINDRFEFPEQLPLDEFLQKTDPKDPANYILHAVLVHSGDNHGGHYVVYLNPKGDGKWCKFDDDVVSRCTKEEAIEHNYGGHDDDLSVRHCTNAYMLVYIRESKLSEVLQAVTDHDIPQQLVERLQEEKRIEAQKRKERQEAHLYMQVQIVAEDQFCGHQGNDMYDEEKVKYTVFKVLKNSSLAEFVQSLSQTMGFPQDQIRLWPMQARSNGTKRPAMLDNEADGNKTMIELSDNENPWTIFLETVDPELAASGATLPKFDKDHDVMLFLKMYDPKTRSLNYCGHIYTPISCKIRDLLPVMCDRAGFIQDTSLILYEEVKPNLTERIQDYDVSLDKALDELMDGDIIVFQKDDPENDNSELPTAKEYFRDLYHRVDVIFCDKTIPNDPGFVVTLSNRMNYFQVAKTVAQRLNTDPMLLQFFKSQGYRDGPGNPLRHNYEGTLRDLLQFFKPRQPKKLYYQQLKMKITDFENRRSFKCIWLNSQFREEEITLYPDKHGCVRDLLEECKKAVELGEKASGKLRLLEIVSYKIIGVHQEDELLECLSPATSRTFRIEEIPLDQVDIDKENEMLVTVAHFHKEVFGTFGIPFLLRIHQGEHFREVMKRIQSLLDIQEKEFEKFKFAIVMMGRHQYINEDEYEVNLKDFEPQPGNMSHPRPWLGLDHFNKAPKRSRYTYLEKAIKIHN
T3 sequence (P25021 whole entry): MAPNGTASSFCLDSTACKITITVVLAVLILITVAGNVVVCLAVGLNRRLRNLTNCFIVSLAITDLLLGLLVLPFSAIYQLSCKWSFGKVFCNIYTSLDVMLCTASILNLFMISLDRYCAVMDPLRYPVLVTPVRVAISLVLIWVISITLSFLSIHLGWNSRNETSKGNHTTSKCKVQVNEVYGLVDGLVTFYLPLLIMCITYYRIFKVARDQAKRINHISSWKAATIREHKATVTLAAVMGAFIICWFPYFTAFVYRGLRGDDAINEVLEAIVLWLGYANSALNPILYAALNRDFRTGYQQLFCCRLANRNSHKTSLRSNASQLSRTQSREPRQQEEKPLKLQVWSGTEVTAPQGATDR

With CC(C)=CCC[C@H](CO)[C@@H]1CC[C@@H](C)c2c1cc(C)c(O)c2O [Compound 1, 7,8,18-trihydroxyserrulat-14-ene] the inhibition at 10 µM (LSD1 (h)) was 10%, the inhibition at 10 µM [1] was -14% and the “% Inhibition of Control Values” (MLL2(h) complex) was 6%. The inhibition at 10 µM (NSD3/WHSC1L1 (h)) was -17%, the inhibition at 10 µM (SETDB1 (h)) was 53% and the inhibition at 10 µM (USP 7 (h)) was -18%. For the same molecule, the “% Control Response” value [2] was 30%, the remaining activity at 10 µM (Histamine H2; [3]) was 67% and the remaining activity at 10 µM (Histamine H2; [4]) was 73%.
In the case of CC(C)=CCC[C@@H]1C(O)Oc2c(C)cc(O)c3c2[C@H]1CC[C@H]3C (stereo partly shown) [Compound 2, 5,18-epoxyserrulat-14-en-8,18-diol], the inhibition at 10 µM (LSD1 (h)) is reported as 10%, the inhibition at 10 µM [1] is reported as -8% and the “% Inhibition of Control Values” (MLL2(h) complex) is reported as 3%. The inhibition at 10 µM (NSD3/WHSC1L1 (h)) was 11%, the inhibition at 10 µM (SETDB1 (h)) was 43% and the inhibition at 10 µM (USP 7 (h)) was -14%. For the same molecule, the “% Control Response” value [2] was −28%, the remaining activity at 10 µM (Histamine H2; [3]) was 24% and the remaining activity at 10 µM (Histamine H2; [4]) was -5%.
For CC(C)=CCC[C@@H]1COc2c(C)cc(O)c3c2[C@H]1CC[C@H]3C [Compound 3, 5,18-epoxy-8-hydroxyserrulat-14-ene], the inhibition at 10 µM (LSD1 (h)) was -3%, the inhibition at 10 µM [1] was -3% and the “% Inhibition of Control Values” (MLL2(h) complex) was −15%. The inhibition at 10 µM (NSD3/WHSC1L1 (h)) was -35%, the inhibition at 10 µM (SETDB1 (h)) was 52% and the inhibition at 10 µM (USP 7 (h)) was 9%. For the same molecule, the “% Control Response” value [2] was −1% and the remaining activity at 10 µM (Histamine H2; [4]) was 66%.
Nc1ncnc2c1ncn2[C@@H]1O[C@H](CSCC[C@H](N)C(=O)O)[C@@H](O)[C@H]1O [SAH] showed an IC50 (MLL2(h) complex; read-out: Reference IC50) of 24 µM and an IC50 (SETDB1 (h); read-out: Reference IC50) of 1.8 µM.
